Measured values published in paper PMC9696794, “Synthesis and Antimicrobial Activity of Short Analogues of the Marine Antimicrobial Peptide Turgencin A: Effects of SAR Optimizations, Cys-Cys Cyclization and Lipopeptide Modifications” (International Journal of Molecular Sciences, 2022).
Values after ≈ are worked out from the molar mass of the structure shown. Where a SMILES comes first, the peptide text is derived from it. Bridges are numbered along the chain shown (N, C = ends). The star is where a group is joined. Decanoyl = CCCCCCCCCC(=O)*

Columns and labels:
[1] = tested on: S. aureus (Sa, ATCC 9144); assay: microbe, parasite or virus in culture; assay type: cell-based, Staphylococcus aureus; conditions: ATCC 9144, 24 h
Outline: (§1)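 Cultures grown in Mueller–Hinton broth were adjusted by OD600 to 2.5–3 × 10^4 CFU/mL and mixed with two-fold peptide dilutions from 256 to 1 µg/mL. Plates were incubated at 35 °C with OD595 monitored every hour for 24 h.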

all bacterial strains = assay: Antibacterial MIC assay, all bacterial strains together (range or geometric mean); assay type: cell-based; conditions: for GM (geometric mean of the MIC values against all bacterial strains): Table 1, six bacterial strains; for GM of MIC Tot. bact.: Table S3, all bacterial test strains, MIC >256 set to 256
Outline: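 Broth microdilution in Mueller–Hinton broth against B. subtilis, C. glutamicum, S. aureus, S. epidermidis RP62A, E. coli and P. aeruginosa; inoculum 2.5–3 × 10^4 CFU/mL, 35 °C, OD595 read hourly for 24 h. MIC: lowest peptide concentration giving OD below 10% of growth control; geometric mean across strains, triplicate.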

[2] = tested on: P. aeruginosa (Pa, ATCC 27853); assay: microbe, parasite or virus in culture; assay type: cell-based, Pseudomonas aeruginosa; conditions: ATCC 27853, 24 h
Outline: as §1

[3] = tested on: human red blood cells (RBC); assay: Haemolytic activity assay; assay type: cell-based; conditions: for Selectivity index (SI) G-: EC50/GM of Gram-negative strains; for Selectivity index (SI) G+: EC50/GM of Gram-positive strains; for SI (selectivity index = EC50/GM): haemolytic EC50 over GM of MIC against all bacterial strains, Table 1; for RBC Tox. (EC50), haemolytic activity: human RBC, 1 h, 37 °C, concentration giving 50% haemolysis
Outline: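 Washed human erythrocytes (1% hematocrit final) incubated 1 h at 37 °C with agitation with lipopeptides at 500–3.9 μM in PBS (≤1% DMSO), duplicates. Haemoglobin release read at 545 nm relative to 0.1% Triton X-100; EC50 is 50% haemolysis, averaged from three experiments.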

[4] = tested on: S. epidermidis RP62A (Se, ATCC 35984); assay: microbe, parasite or virus in culture; assay type: cell-based, Staphylococcus epidermidis; conditions: ATCC 35984, 24 h
Outline: as §1

[5] = tested on: Gram-negative bacterial strains (E. coli and P. aeruginosa); assay: Antibacterial MIC assay, Gram-negative strains together (range or geometric mean); assay type: cell-based; conditions: Table S3; MIC >256 set to 256
Outline: as §1

[6] = tested on: C. albicans (Ca, ATCC 10231); assay: microbe, parasite or virus in culture; assay type: cell-based, Candida albicans; conditions: ATCC 10231, 48 h
Outline: (§2)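 Overnight cultures in potato dextrose broth with 2% glucose at 25–30 °C were diluted to approx. 4 × 10^5 spores/mL and mixed 1:1 with two-fold peptide dilutions plated at 256 to 1 µg/mL. After 48 h at room temperature, OD600 was read. MIC was the lowest concentration giving OD below 10% of the growth control, in triplicate.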

[7] = tested on: E. coli MC4100 (wild type, WT); assay: microbe, parasite or virus in culture; conditions: wild type
Outline: (§3)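 Broth microdilution in Mueller–Hinton medium, 2.5–3 × 10^4 CFU/mL inoculum, two-fold peptide dilutions from 256 to 1 µg/mL, 35 °C with OD595 read hourly for 24 h. MIC is the lowest concentration giving OD below 10% of the untreated growth control; run in triplicate.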

[8] = tested on: E. coli NR698 (outer membrane permeable mutant, imp4213); assay: microbe, parasite or virus in culture; conditions: MC4100 NR698 imp4213, deficient outer membrane
Outline: as §3

Rhodotorula sp. (Rh) = assay: microbe, parasite or virus in culture; assay type: cell-based; conditions: 48 h
Outline: as §2

A. pullulans (Ap) = assay: microbe, parasite or virus in culture; assay type: cell-based, Aurobasidium pollulans; conditions: 48 h
Outline: as §2

[9] = tested on: Gram-positive bacterial strains; conditions: Table S3; MIC >256 set to 256
Outline: as §1

E. coli (Ec, ATCC 25922) = assay: microbe, parasite or virus in culture; assay type: cell-based, Escherichia coli; conditions: ATCC 25922, 24 h
Outline: as §1

[10] = tested on: B. subtilis (Bs, ATCC 23857); assay: microbe, parasite or virus in culture; assay type: cell-based, Bacillus subtilis; conditions: ATCC 23857, 24 h
Outline: as §1

[11] = tested on: fungi (A. pullulans, C. albicans, Rhodotorula sp.); assay: Antifungal MIC assay, all fungi together (range or geometric mean); assay type: cell-based; conditions: Table S3; MIC >128 set to 128
Outline: as §2

[12] = tested on: C. glutamicum (Cg, ATCC 13032); assay: microbe, parasite or virus in culture; assay type: cell-based, Corynebacterium glutamicum; conditions: ATCC 13032, 24 h
Outline: as §1

[13] = Table S3, highest tested concentration used where EC50 above it

Row | Compound | Antimicrobial Activity (MIC) Gram + Sa [1] [µg/mL] | GM (geometric mean of the MIC values against all bacterial strains) (all bacterial strains) [µg/mL] | GM of MIC Tot. bact. (all bacterial strains) [µg/mL] | Antimicrobial Activity (MIC) Gram − Pa [2] [µg/mL] | Selectivity index (SI) G- [3, 13] | Selectivity index (SI) G+ [3, 13] | SI (selectivity index = EC50/GM) [3] | RBC Tox. (EC50), haemolytic activity [3] [µg/mL] | Antimicrobial Activity (MIC) Gram + Se [4] [µg/mL] | GM of MIC G- [5] [µg/mL] | Antimicrobial Activity (MIC) Fungi Ca [6] [µg/mL] | MIC E. coli MC4100 (WT) [7] [µg/mL] | MIC E. coli NR698 (mutant) [8] [µg/mL] | Antimicrobial Activity (MIC) Fungi Rh (Rhodotorula sp. (Rh)) [µg/mL] | Antimicrobial Activity (MIC) Fungi Ap (A. pullulans (Ap)) [µg/mL] | GM of MIC G+ [9] [µg/mL] | Antimicrobial Activity (MIC) Gram − Ec (E. coli (Ec, ATCC 25922)) [µg/mL] | Antimicrobial Activity (MIC) Gram + Bs [10] [µg/mL] | GM of MIC Fungi [11] [µg/mL] | Antimicrobial Activity (MIC) Gram + Cg [12] [µg/mL] | also measured
1 | CC(C)C[C@H](NC(=O)[C@H](CCCCN)NC(=O)[C@@H]1CSSC[C@H](N)C(=O)NCC(=O)N[C@@H](CCCCN)C(=O)N[C@@H](CCCCN)C(=O)N[C@@H](Cc2c[nH]c3ccccc23)C(=O)NCC(=O)N[C@@H](Cc2c[nH]c3ccccc23)C(=O)N[C@@H](Cc2c[nH]c3ccccc23)C(=O)N[C@@H](CCCCN)C(=O)N1)C(N)=O [cTurg-3] (H-CGKKWGWWKCKL-NH2; disulfide 1-10; N-terminus assumed) | 32 | 18 | 18 | 128 | 13 | 89 | 47 | 849 | 16 | 64 | 32 | 16 (≈ 10.5 µM) | 8 (≈ 5.26 µM) | 32 | 32 | 10 | 32 | 4 | 32 | 4 | Selectivity index (SI) Fungi ([3]; Table S3, EC50/GM of fungi, highest tested concentration used where EC50 above it): 27
2 | CCCCCCCCCC(=O)N[C@H]1CSSC[C@@H](C(=O)N[C@@H](CCCNC(=N)N)C(=O)N[C@@H](CC(C)C)C(N)=O)NC(=O)[C@H](CCCNC(=N)N)NC(=O)[C@H](Cc2c[nH]c3ccccc23)NC(=O)[C@H](Cc2c[nH]c3ccccc23)NC(=O)CNC(=O)[C@H](Cc2c[nH]c3ccccc23)NC(=O)[C@H](CCCNC(=N)N)NC(=O)[C@H](CCCNC(=N)N)NC(=O)CNC1=O [Peptide C10-cTurg-6, C10- (CGRRWGWWRC)RL-NH2] (Decanoyl-CGRRWGWWRCRL-NH2; disulfide 1-10) | 8 | 8 | 8 | 16 | 1 | 3 | 2 | 16 | 8 | 16 | 64 | 8 (≈ 4.48 µM) | 8 (≈ 4.48 µM) | 32 | 64 | 6 | 16 | 4 | 51 | 4 | –
